# Assay results as given in US20260262643A1, “HERBICIDAL BENZOXAZINES” (FMC CORPORATION, priority 2022, published 2026).
# What was measured:
# soybean [1] = assay: Test A postemergence; type: in vivo, Glycine max; settings: postemergence, 10 days
# How it was run: (§1)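 Plants were grown in loam and sand and treated preemergence or postemergence (one- to two-leaf stage, 2–10 cm) with compound in solvent plus surfactant. Response was scored against untreated controls after 10 greenhouse days, where 0 means no effect and 100 complete control.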
# foxtail, giant [2] = assay: Test A preemergence; type: in vivo, Setaria faberi
# How it was run: as §1
# wheat [3] = assay: Test A preemergence; type: in vivo, Triticum aestivum
# How it was run: as §1
# corn [4] = assay: Test A preemergence; type: in vivo, Zea mays
# How it was run: as §1
# oat, wild [5] = assay: Test A preemergence; type: in vivo, Avena fatua
# How it was run: as §1
# barnyardgrass = assay: Test B flooded paddy test; type: in vivo, Echinochloa crus-galli; settings: 250 g ai/ha, Flood, 13 days, 0 to 100 scale (0 no effect, 100 complete control)
# How it was run: (§2)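 2-leaf stage; pots flooded 3 cm over soil; compound dosed into paddy water; depth kept constant. Greenhouse, 13 d. Visual rating vs controls, 0 (no effect)–100 (complete control). Dash = no result.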
# kochia [6] = assay: Test A postemergence; type: in vivo, Bassia scoparia; settings: postemergence, 10 days
# How it was run: as §1
# oat, wild [7] = assay: Test A postemergence; type: in vivo, Avena fatua; settings: postemergence, 10 days
# How it was run: as §1
# ragweed [8] = assay: Test A preemergence; type: in vivo, Ambrosia artemisiifolia
# How it was run: as §1
# wheat [9] = assay: Test A postemergence; type: in vivo, Triticum aestivum; settings: postemergence, 10 days
# How it was run: as §1
# ducksalad = assay: Test B flooded paddy test; type: in vivo, Heteranthera limosa; settings: 250 g ai/ha, Flood, 13 days, 0 to 100 scale (0 no effect, 100 complete control)
# How it was run: as §2
# kochia [10] = assay: Test A preemergence; type: in vivo, Bassia scoparia
# How it was run: as §1
# sedge, umbrella = assay: Test B flooded paddy test; type: in vivo, Cyperus difformis; settings: 250 g ai/ha, Flood, 13 days, 0 to 100 scale (0 no effect, 100 complete control)
# How it was run: as §2
# rice = assay: Test B flooded paddy test; type: in vivo, Oryza sativa; settings: 250 g ai/ha, Flood, 13 days, 0 to 100 scale (0 no effect, 100 complete control)
# How it was run: as §2
# galium = assay: Test A postemergence; type: in vivo, Galium aparine; settings: postemergence, 10 days
# How it was run: as §1
# ryegrass, Italian [11] = assay: Test A postemergence; type: in vivo, Lolium multiflorum; settings: postemergence, 10 days
# How it was run: as §1
# corn [12] = assay: Test A postemergence; type: in vivo, Zea mays; settings: postemergence, 10 days
# How it was run: as §1
# ragweed [13] = assay: Test A postemergence; type: in vivo, Ambrosia artemisiifolia; settings: postemergence, 10 days
# How it was run: as §1
# pigweed, palmer [14] = assay: Test A preemergence; type: in vivo, Amaranthus palmeri
# How it was run: as §1
# goosegrass [15] = assay: Test A preemergence; type: in vivo, Eleusine indica
# How it was run: as §1
# goosegrass [16] = assay: Test A postemergence; type: in vivo, Eleusine indica; settings: postemergence, 10 days
# How it was run: as §1
# ryegrass, Italian [17] = assay: Test A preemergence; type: in vivo, Lolium multiflorum
# How it was run: as §1
# pigweed, palmer [18] = assay: Test A postemergence; type: in vivo, Amaranthus palmeri; settings: postemergence, 10 days
# How it was run: as §1
# horseweed = assay: Test A postemergence; type: in vivo, Erigeron canadensis; settings: postemergence, 10 days
# How it was run: as §1
# foxtail, giant [19] = assay: Test A postemergence; type: in vivo, Setaria faberi; settings: postemergence, 10 days
# How it was run: as §1
# blackgrass [20] = assay: Test A preemergence; type: in vivo, Alopecurus myosuroides
# How it was run: as §1
# soybean [21] = assay: Test A preemergence; type: in vivo, Glycine max
# How it was run: as §1
# blackgrass [22] = assay: Test A postemergence; type: in vivo, Alopecurus myosuroides; settings: postemergence, 10 days
# How it was run: as §1
# [23] = 125 g ai/ha, 0 to 100 scale, 0 no effect, 100 complete control
# [24] = 500 g ai/ha, visual injury, 0 to 100 scale (0 no effect, 100 complete control)
# [25] = 125 g ai/ha, visual injury after 10 days, 0 to 100 scale, 0 is no effect, 100 is complete control
# [26] = 500 g ai/ha, 0 to 100 scale (0 no effect, 100 complete control), 10 days
smiles,measurement,setting,value
Cc1ccc(-n2cnc(C3CCC3)n2)cc1C(=O)N1C[C@H](C)Oc2c(C)cccc21 [Compound 97],Soybean plant response rating,soybean [1]; [23],100
same,"Plant response rating, Soybean",soybean [1]; [24],100
same,"Plant response rating, Foxtail, Giant","foxtail, giant [2]; [25]",100
same,"Plant response rating, Foxtail, Giant","foxtail, giant [2]; [26]",100
same,"Plant response rating, Wheat",wheat [3]; [25],10
same,"Plant response rating, Wheat",wheat [3]; [26],40
same,"Plant response rating, Corn",corn [4]; [25],10
same,"Plant response rating, Corn",corn [4]; [26],20
same,"Plant response rating, Oat, Wild","oat, wild [5]; [25]",90
same,"Plant response rating, Oat, Wild","oat, wild [5]; [26]",90
same,"Plant response rating, Barnyardgrass",barnyardgrass,0
same,Kochia plant response rating,kochia [6]; [23],70
same,"Plant response rating, Kochia",kochia [6]; [24],100
same,"Oat, Wild plant response rating","oat, wild [7]; [23]",30
same,"Plant response rating, Oat, Wild","oat, wild [7]; [24]",70
same,"Plant response rating, Ragweed",ragweed [8]; [25],30
same,"Plant response rating, Ragweed",ragweed [8]; [26],80
same,Wheat plant response rating,wheat [9]; [23],20
same,"Plant response rating, Wheat",wheat [9]; [24],70
same,"Plant response rating, Ducksalad",ducksalad,0
same,"Plant response rating, Kochia",kochia [10]; [25],60
same,"Plant response rating, Kochia",kochia [10]; [26],80
same,"Plant response rating, Sedge, Umbrella","sedge, umbrella",0
same,"Plant response rating, Rice",rice,0
same,Galium plant response rating,galium; [23],80
same,"Plant response rating, Galium",galium; [24],100
same,"Ryegrass, Italian plant response rating","ryegrass, Italian [11]; [23]",40
same,"Plant response rating, Ryegrass, Italian","ryegrass, Italian [11]; [24]",80
same,Corn plant response rating,corn [12]; [23],30
same,"Plant response rating, Corn",corn [12]; [24],70
same,Ragweed plant response rating,ragweed [13]; [23],50
same,"Plant response rating, Ragweed",ragweed [13]; [24],80
same,"Plant response rating, Pigweed, Palmer","pigweed, palmer [14]; [25]",100
same,"Plant response rating, Pigweed, Palmer","pigweed, palmer [14]; [26]",100
same,"Plant response rating, Goosegrass",goosegrass [15]; [25],100
same,"Plant response rating, Goosegrass",goosegrass [15]; [26],100
same,Goosegrass plant response rating,goosegrass [16]; [23],70
same,"Plant response rating, Goosegrass",goosegrass [16]; [24],90
same,"Plant response rating, Ryegrass, Italian","ryegrass, Italian [17]; [25]",70
same,"Plant response rating, Ryegrass, Italian","ryegrass, Italian [17]; [26]",100
same,"Pigweed, Palmer plant response rating","pigweed, palmer [18]; [23]",90
same,"Plant response rating, Pigweed, Palmer","pigweed, palmer [18]; [24]",100
same,Horseweed plant response rating,horseweed; [23],30
same,"Plant response rating, Horseweed",horseweed; [24],90
same,"Foxtail, Giant plant response rating","foxtail, giant [19]; [23]",90
same,"Plant response rating, Foxtail, Giant","foxtail, giant [19]; [24]",90
same,"Plant response rating, Blackgrass",blackgrass [20]; [25],10
same,"Plant response rating, Blackgrass",blackgrass [20]; [26],40
same,"Plant response rating, Soybean",soybean [21]; [25],40
same,"Plant response rating, Soybean",soybean [21]; [26],100
same,Blackgrass plant response rating,blackgrass [22]; [23],30
same,"Plant response rating, Blackgrass",blackgrass [22]; [24],80
